Data reported in the supplement of paper PMC11061612.

Legend:
Assay in all cases: combination Emax (second highest fraction inhibited in the dose matrix, 72 h); higher = more inhibition; extreme values may be limits of the assay
ARH-77 (Non-Cancerous) = tested on: ARH-77 (Non-Cancerous)
Summary of the method: (§1)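 Cell lines grown in DMEM/F12 or RPMI with 10% FBS were plated in 1536-well plates and held 24 hours at 37°C, 5% CO2 before 72 hours of exposure to two-drug dose matrices, with DMSO typically at 0.2%. CellTiter-Glo 2.0 luminescence gave viability, which was converted to inhibition. Vehicle wells were set to 0 and blank wells to 1. Combination Emax is the second-highest inhibition in the matrix, and Bliss excess is the observed combination effect minus the expected EA + EB − EA·EB, where EA and EB are the single-agent effects.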

[1] = tested on: NCI-H1693 (Lung Adenocarcinoma)
Summary of the method: as §1

[2] = tested on: SK-MES-1 (Squamous Cell Lung Carcinoma)
Summary of the method: as §1

[3] = tested on: PANC-10-05 (Pancreatic Carcinoma)
Summary of the method: as §1

[4] = tested on: A549 (Lung Adenocarcinoma)
Summary of the method: as §1

LN-405 (Glioblastoma) = tested on: LN-405 (Glioblastoma)
Summary of the method: as §1

FU97 (Gastric Carcinoma) = tested on: FU97 (Gastric Carcinoma)
Summary of the method: as §1

GI-ME-N (Neuroblastoma) = tested on: GI-ME-N (Neuroblastoma)
Summary of the method: as §1

[5] = tested on: CCK-81 (Colorectal Carcinoma)
Summary of the method: as §1

NY (Osteosarcoma) = tested on: NY (Osteosarcoma)
Summary of the method: as §1

[6] = tested on: NCI-H2141 (Small Cell Lung Carcinoma)
Summary of the method: as §1

[7] = tested on: VCaP (Prostate Carcinoma)
Summary of the method: as §1

[8] = tested on: OS-RC-2 (Kidney Carcinoma)
Summary of the method: as §1

U-2-OS (Osteosarcoma) = tested on: U-2-OS (Osteosarcoma)
Summary of the method: as §1

[9] = tested on: COLO-824 (Breast Carcinoma)
Summary of the method: as §1

[10] = tested on: CAPAN-2 (Pancreatic Carcinoma)
Summary of the method: as §1

[11] = tested on: NCI-H64 (Small Cell Lung Carcinoma)
Summary of the method: as §1

[12] = tested on: ECC10 (Gastric Carcinoma)
Summary of the method: as §1

[13] = tested on: SK-MG-1 (Low Grade Glioma)
Summary of the method: as §1

Hs-445 (Non-Cancerous) = tested on: Hs-445 (Non-Cancerous)
Summary of the method: as §1

Row | SMILES | combination Emax (ARH-77 (Non-Cancerous)) | combination Emax [1] | combination Emax [2] | combination Emax [3] | combination Emax [4] | combination Emax (LN-405 (Glioblastoma)) | combination Emax (FU97 (Gastric Carcinoma)) | combination Emax (GI-ME-N (Neuroblastoma)) | combination Emax [5] | combination Emax (NY (Osteosarcoma)) | combination Emax [6] | combination Emax [7] | combination Emax [8] | combination Emax (U-2-OS (Osteosarcoma)) | combination Emax [9] | combination Emax [10] | combination Emax [11] | combination Emax [12] | combination Emax [13] | combination Emax (Hs-445 (Non-Cancerous))
1 | CN(C)CCCOc1ccc(-c2ccc3ncc4c(c3c2)n(C2CCOCC2)c(=O)n4C)cn1 [AZD0156] + C=CCn1c(=O)c2cnc(Nc3ccc(N4CCN(C)CC4)cc3)nc2n1-c1cccc(C(C)(C)O)n1 [AZD1775] (first compound max 1 µM, partner max 1 µM) | 0.944 | 0.179 | 0.555 | 0.361 | 0.317 | 0.134 | 0.367 | 0.321 | 0.903 | 0.555 | 0.558 | 0.553 | 0.326 | 0.734 | 0.644 | 0.39 | 0.832 | 0.783 | 0.525 | 0.926
2 | CN(C)CCCOc1ccc(-c2ccc3ncc4c(c3c2)n(C2CCOCC2)c(=O)n4C)cn1 [AZD0156] + CCN(CCO)CCCOc1ccc2c(Nc3cc(CC(=O)Nc4cccc(F)c4)[nH]n3)ncnc2c1 [AZD2811] (first compound max 1 µM, 7x7, partner max 1 µM) | 0.492 | 0.142 | 0.204 | 0.218 | 0.595 | 0.0969 | 0.188 | 0.0704 | 0.159 | 0.0423 | 0.289 | 0.118 | 0.11 | 0.152 | 0.818 | 0.122 | 0.461 | 0.856 | 0.388 | 0.325
3 | CN(C)CCCOc1ccc(-c2ccc3ncc4c(c3c2)n(C2CCOCC2)c(=O)n4C)cn1 [AZD0156] + C[C@@H]1COCCN1C2=NC(=NC(=C2)C3(CC3)[S@](=N)(=O)C)C4=C5C=CNC5=NC=C4 [AZD6738] (first compound max 1 µM, 7x7, partner max 10 µM) | 0.975 | 0.192 | 0.73 | 0.41 | 0.789 | 0.376 | 0.414 | 0.697 | 0.912 | 0.555 | 0.462 | 0.359 | 0.425 | 0.856 | 0.712 | 0.395 | 0.732 | 0.332 | 0.565 | 0.868
4 | CN(C)CCCOc1ccc(-c2ccc3ncc4c(c3c2)n(C2CCOCC2)c(=O)n4C)cn1 [AZD0156] + O=C(c1cc(Cc2n[nH]c(=O)c3ccccc23)ccc1F)N1CCN(C(=O)C2CC2)CC1 [Olaparib] (first compound max 3 µM, partner max 3 µM) | 0.63 | 0.248 | 0.407 | 0.343 | 0.374 | 0.182 | 0.422 | 0.193 | 0.394 | 0.338 | 0.192 | 0.296 | 0.269 | 0.201 | 0.383 | 0.291 | 0.145 | 0.299 | 0.319 | 0.174
5 | CN(CCO)CC[C@H](CSc1ccccc1)Nc1ccc(S(=O)(=O)NC(=O)c2ccc(N3CCC([C@@H](O)c4ccccc4-c4ccc(Cl)cc4)CC3)cc2)cc1S(=O)(=O)C(F)(F)F [AZD4320] + C1CN(CCC1(C(=O)N[C@@H](CCO)C2=CC=C(C=C2)Cl)N)C3=NC=NC4=C3C=CN4 [Capivasertib] (first compound max 1 µM, 7x7, partner max 3 µM) | 0.841 |  | 0.104 | 0.265 | 0.354 | 0.45 | 0.418 | 0.153 | 0.135 | 0.0978 | 0.829 | 0.404 | 0.337 | 0.225 | 1 | 0.576 | 0.95 | 1 | 0.413 | 0.805
6 | CN(CCO)CC[C@H](CSc1ccccc1)Nc1ccc(S(=O)(=O)NC(=O)c2ccc(N3CCC([C@@H](O)c4ccccc4-c4ccc(Cl)cc4)CC3)cc2)cc1S(=O)(=O)C(F)(F)F [AZD4320] + CN(C)CCCOc1ccc(-c2ccc3ncc4c(c3c2)n(C2CCOCC2)c(=O)n4C)cn1 [AZD0156] (first compound max 1 µM, 7x7, partner max 1 µM) | 0.793 | 0.19 | 0.208 | 0.373 | 0.175 | 0.275 | 0.258 | 0.156 |  | 0.0862 | 0.801 | 0.19 | 0.209 | 0.259 | 1 | 0.634 | 0.973 | 1 | 0.274 | 0.497
7 | COc1nnc2ccc(N3CCC(c4ccc(OCCN5CCN(C)C(=O)[C@H]5C)cc4)CC3)nn12 [AZD5153] + CN(CC[C@H](CSC1=CC=CC=C1)NC2=C(C=C(C=C2)S(=O)(=O)NC(=O)C3=CC=C(C=C3)N4CCC(CC4)[C@H](C5=CC=CC=C5C6=CC=C(C=C6)Cl)O)S(=O)(=O)C(F)(F)F)CCO [AZD4320] (first compound max 1 µM, 7x7, partner max 1 µM) | 0.965 | 0.628 | 0.631 |  | 0.735 | 0.723 |  | 0.246 |  |  | 0.941 |  | 0.292 | 0.319 | 1 |  |  |  | 0.566 | 0.889
8 | Cc1c2c(nn1C)CSCc1cc(n(C)n1)CSc1cc(c3ccccc3c1)OCCCc1c(C(=O)O)n(C)c3c-2c(Cl)ccc13 [AZD5991] + Cn1cnc2c(F)c(Nc3ccc(Br)cc3Cl)c(C(=O)NOCCO)cc21 [Selumetinib] (first compound max 1 µM, 7x7, partner max 3 µM) |  | 0.319 | 0.435 | 0.442 | 0.64 | 0.383 | 0.411 | 0.421 | 0.947 | 0.416 | 0.22 | 0.911 | 0.238 | 0.331 | 0.406 | 0.482 | 0.295 | 0.669 | 0.339 | 0.932
9 | C[C@@H]1COCCN1c1cc(C2([S@](C)(=N)=O)CC2)nc(-c2ccnc3[nH]ccc23)n1 [AZD6738] + O=C(c1cc(Cc2n[nH]c(=O)c3ccccc23)ccc1F)N1CCN(C(=O)C2CC2)CC1 [Olaparib] (first compound max 10 µM, 7x7, partner max 10 µM) | 0.911 | 0.298 | 0.696 | 0.486 | 0.809 | 0.391 | 0.332 | 0.486 |  | 0.607 | 0.51 | 0.374 | 0.435 | 0.723 | 0.595 | 0.309 | 0.692 | 0.54 | 0.552 | 0.835
10 | CC(=O)c1c(C)c2cnc(Nc3ccc(N4CCNCC4)cn3)nc2n(C2CCCC2)c1=O [Palbociclib] + CN(CC[C@H](CSC1=CC=CC=C1)NC2=C(C=C(C=C2)S(=O)(=O)NC(=O)C3=CC=C(C=C3)N4CCC(CC4)[C@H](C5=CC=CC=C5C6=CC=C(C=C6)Cl)O)S(=O)(=O)C(F)(F)F)CCO [AZD4320] (first compound max 10 µM, 7x7, partner max 1 µM) | 0.899 | 0.803 | 0.289 |  | 0.723 | 0.69 |  | 0.211 |  |  | 0.883 |  | 0.365 | 0.355 | 1 |  |  |  | 0.563 | 0.95
11 | CCc1c2c(nc3ccc(O)cc13)-c1cc3c(c(=O)n1C2)COC(=O)[C@]3(O)CC [SN-38] + O=C(c1cc(Cc2n[nH]c(=O)c3ccccc23)ccc1F)N1CCN(C(=O)C2CC2)CC1 [Olaparib] (first compound max 0.3 µM, 7x7, partner max 10 µM) | 0.997 |  |  | 0.76 | 0.817 | 0.413 | 0.277 | 0.494 | 0.587 | 0.91 | 0.423 | 0.459 |  | 0.205 |  | 0.137 | 0.396 | 1 | 0.821 | 1
12 | C[C@@H](c1ccc2nccn2c1)n1nnc2ncc(-c3cnn(C)c3)nc21 [Savolitinib] + CN(CC[C@H](CSC1=CC=CC=C1)NC2=C(C=C(C=C2)S(=O)(=O)NC(=O)C3=CC=C(C=C3)N4CCC(CC4)[C@H](C5=CC=CC=C5C6=CC=C(C=C6)Cl)O)S(=O)(=O)C(F)(F)F)CCO [AZD4320] (first compound max 1 µM, 7x7, partner max 1 µM) | 0.82 | 0.182 | 0.18 |  | 0.165 | 0.455 |  | 0.229 |  |  | 0.744 |  | 0.324 | 0.385 | 1 |  |  |  | 0.152 | 0.625
13 | CC(=O)Nc1cccc(-n2c(=O)n(C3CC3)c(=O)c3c(Nc4ccc(I)cc4F)n(C)c(=O)c(C)c32)c1 [Trametinib] + Cc1nc(-c2cn3c(n2)-c2ccc(-c4cnn(C(C)(C)C(N)=O)c4)cc2OCC3)n(C(C)C)n1 [Taselisib] (first compound max 1 µM, 7x7, partner max 10 µM) | 0.776 | 0.469 | 1 | 0.838 | 1 | 0.76 |  | 0.77 | 0.98 | 0.747 | 0.317 | 0.47 | 0.627 | 1 | 0.976 | 0.578 | 0.477 | 0.989 | 0.85 | 0.611
